Experiments:
[1] = biological target: T1, PfKRS (cytosolic lysyl tRNA synthetase) (Plasmodium falciparum, UniProt Q8IDJ8); assay: biochemical; parameters: PfKRS lysine activation, pyrophosphate release with BIOMOL Green absorbance at 650 nm; details: read-out: PfKRS pIC50 (converted)
T1 construct: gene PF3D7_1350100
Experimental: (§1) PfKRS assay wells contained PfKRS assay buffer (100 mM Hepes; pH 7.4, 100 mM NaCl, 20 mM MgCl2, 0.01% (v/v) Igepal and 1 mM DTT) plus 20 nM PfKRS, 200 μM ATP, 400 μM L-lysine, and 0.5 U/mL pyrophosphatase. HsKRS reactions contained HsKRS assay buffer (30 mM Tris; pH 8, 140 mM NaCl, 40 mM MgCl2, 30 mM KCl, 0.01% (v/v) Brij and 1 mM DTT) plus 400 nM HsKRS, 3.5 μM ATP, 6 μM L-lysine, and 0.5 U/mL pyrophosphatase. Assays were performed by adding 25 μL of assay buffer with enzyme to all assay wells, before the reaction was initiated with the addition of a 25 μL substrate mixture containing L-lysine, ATP, and pyrophosphatase (a substrate mix with L-lysine omitted was added to “no lysine” control wells on each assay plate). Following a 6 h (PfKRS) or 3 h (HsKRS) reaction at RT, the assay was stopped with the addition of 50 μL BIOMOL Green. The BIOMOL Green signal was allowed to develop for 30 min before the absorbance of each well was read at 650 nm using an EnVision multilabel plate reader (PerkinElmer Life Sciences) or a PheraStar plate reader (BMG). All [compound left out] dispensing steps were carried out using a Thermo Scientific WellMate dispenser (Matrix). To generate pIC50 data for hit compounds in the PfKRS or HsKRS assays, 10-point inhibitor dose–response curves were prepared in 384-well assay plates using an ECHO 550 acoustic dispenser (Labcyte). Following preparation of the inhibitor curves, assays were carried out as described above. ActivityBase from IDBS (version 8.0.5.4) was used for data processing and analysis, with percentage inhibition values determined relative to 100% inhibition (“no-lysine” control) and 0% inhibition control wells on each plate. All IC50 curve fitting was undertaken using ActivityBase XE (version 7.7.1) from IDBS. A four-parameter logistic dose–response curve was utilized (XLfit model 203) with prefit used for all four parameters.
Target sequence in this assay (Q8IDJ8 1-583): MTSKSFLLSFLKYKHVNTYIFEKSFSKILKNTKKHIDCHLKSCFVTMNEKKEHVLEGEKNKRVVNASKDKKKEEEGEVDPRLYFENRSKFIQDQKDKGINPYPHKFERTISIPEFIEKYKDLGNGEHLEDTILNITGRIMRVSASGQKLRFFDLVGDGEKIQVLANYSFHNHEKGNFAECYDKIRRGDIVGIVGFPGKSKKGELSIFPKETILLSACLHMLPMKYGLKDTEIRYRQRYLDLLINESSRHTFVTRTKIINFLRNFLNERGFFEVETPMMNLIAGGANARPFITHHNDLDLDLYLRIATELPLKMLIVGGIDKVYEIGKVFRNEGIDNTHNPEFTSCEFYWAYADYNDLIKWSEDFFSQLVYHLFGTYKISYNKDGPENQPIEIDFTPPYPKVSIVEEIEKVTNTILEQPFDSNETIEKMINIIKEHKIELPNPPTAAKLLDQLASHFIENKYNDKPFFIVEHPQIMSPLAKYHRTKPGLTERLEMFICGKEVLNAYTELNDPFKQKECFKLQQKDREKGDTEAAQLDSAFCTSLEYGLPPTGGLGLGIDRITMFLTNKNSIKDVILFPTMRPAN

HsKRS = biological target: T2, HsKRS (Homo sapiens, UniProt Q15046); assay: biochemical; parameters: HsKRS lysine activation, pyrophosphate release with BIOMOL Green absorbance at 650 nm; details: read-out: HsKRS pIC50 (converted)
T2 construct: gene KARS1
T2 sequence (Q15046 whole entry): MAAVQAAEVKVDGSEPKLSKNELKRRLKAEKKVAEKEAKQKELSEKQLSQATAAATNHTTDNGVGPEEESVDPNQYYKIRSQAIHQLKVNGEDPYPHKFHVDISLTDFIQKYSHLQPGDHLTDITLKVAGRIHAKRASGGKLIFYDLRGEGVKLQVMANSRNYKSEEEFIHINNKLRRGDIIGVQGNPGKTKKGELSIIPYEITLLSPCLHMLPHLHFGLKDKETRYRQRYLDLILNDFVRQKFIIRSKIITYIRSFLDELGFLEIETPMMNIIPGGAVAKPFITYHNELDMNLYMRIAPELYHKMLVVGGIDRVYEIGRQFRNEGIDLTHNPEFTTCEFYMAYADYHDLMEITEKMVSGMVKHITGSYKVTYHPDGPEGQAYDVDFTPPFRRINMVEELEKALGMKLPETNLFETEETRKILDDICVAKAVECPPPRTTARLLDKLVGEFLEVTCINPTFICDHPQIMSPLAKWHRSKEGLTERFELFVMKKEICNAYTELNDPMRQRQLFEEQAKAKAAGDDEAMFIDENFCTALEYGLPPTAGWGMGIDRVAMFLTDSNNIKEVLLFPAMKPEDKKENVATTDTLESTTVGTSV
Experimental: as §1

[2] = biological target: T1, PfKRS (cytosolic lysyl tRNA synthetase); assay: isothermal thermal proteome profiling at […] °C in P. falciparum lysate; type: cell-based
Target sequence in this assay (Q8IDJ8 entry or part of it): as the sequence (Q8IDJ8 1-583) above

SMILES	IC50 [1]	IC50 (HsKRS)	isothermal thermal proteome profiling at 57 °C in P. falciparum lysate [2]
O=C(NCC1(O)CCC(F)(F)CC1)c1cc(=O)c2cc(F)ccc2o1 [DDD01510706]	240 nM	20000 nM	–
O=C(NCC1CCCCC1)c1cc(=O)c2cc(F)cc(NS(=O)(=O)c3ccccc3)c2o1 [DDD02354914]	11.7 nM	6310 nM	–
C[C@H]1CCC[C@H](C[C@H]2Cc3cc(O)cc(O)c3C(=O)O2)O1 [cladosporin]	47.9 nM	> 100000 nM	The relative abundance of PfKRS was also significantly increased in lysates exposed to cladosporin
[N-]=[N+]=NCCOCCOCCOCCNC(=O)c1ccc(S(=O)(=O)Nc2cc(F)cc3c(=O)cc(C(=O)NCC4CCCCC4)oc23)cc1 [linker 1]	22.4 nM	43700 nM	–

Reference: PMC9469095, “Toolkit of Approaches To Support Target-Focused Drug Discovery for Plasmodium falciparum Lysyl tRNA Synthetase” (ACS Infectious Diseases, 2022)
